Reference: patent EP0023885A1, “Method for the introduction of an oxygen-containing functional group into ansamycines, compounds thus obtained, and pharmaceutical compositions containing them” (CIBA-GEIGY AG, priority 1979, dated 1981)

What was measured:
[1] = test system: grammpositive und grammnegative Kokken; test: in vitro antibacterial activity against cocci; type: cell-based; conditions: at the lowest tested concentration (0,01 mcg/ml)
Excerpt: (§1) Diese neuen Verbindungen zeichnen sich durch ihre wertvollen pharmakologischen Eigenschaften aus: so besitzen sie gemäss den Resultaten in vitro antibiotische, insbesondere antibakterielle Eigenschaften, wie z.B. einerseits gegen grammpositive und grammnegative Kokken, wie Staphylococcus aureus, Streptococcus pyogenes, Streptococcus pneumoniae, Neisseria meningitis, Neisseria gonorhoae (im getesteten Konzentrationsbereich 0,01 bis 8 mcg/ml), andererseits gegen grammnegative Stäbchenbakterien, wie Enterobacteriaceae, Pseudomonas aeruginosa, Haemophilus influenzae (im getesteten Konzentrationsbereich von 0,01 bis […]).

[2] = test system: grammnegative Stäbchenbakterien; test: in vitro antibacterial activity against gram-negative rod bacteria; type: cell-based; conditions: at the lowest tested concentration (0,01 mg/ml)
Excerpt: as §1

Compound	Hemmwirkung [1]	Hemmwirkung [2]
3-(2-Methoxyäthoxy)-rifamycin-S [3-(2-Methoxyäthyl)-rifamycin-S]	deutliche Hemmwirkung	deutliche Hemmwirkung
3-Benzoyloxyrifamycin-S [3-Benzoylrifamycin-S]	deutliche Hemmwirkung	deutliche Hemmwirkung
COC1C=COC2(C)Oc3c(C)c(O)c4c(c3C2=O)C(=O)C(OC(C)=O)=C(NC(=O)C(C)=CC=CC(C)C(O)C(C)C(O)C(C)C(OC(C)=O)C1C)C4=O (stereo not shown) [3-Acetoxyrifamycin-S]	deutliche Hemmwirkung	deutliche Hemmwirkung
COC1=C2NC(=O)C(C)=CC=CC(C)C(O)C(C)C(O)C(C)C(OC(C)=O)C(C)C(OC)C=COC3(C)Oc4c(C)c(O)c(c(c4C3=O)C1=O)C2=O (stereo not shown) [3-Methoxyrifamycin-S]	deutliche Hemmwirkung	deutliche Hemmwirkung
COC1C=COC2(C)Oc3c(C)c(O)c4c(c3C2=O)C(=O)C(Oc2ccccc2)=C(NC(=O)C(C)=CC=CC(C)C(O)C(C)C(O)C(C)C(OC(C)=O)C1C)C4=O (stereo not shown) [3-Phenoxyrifamycin-S]	deutliche Hemmwirkung	deutliche Hemmwirkung
